Experimental data published in patent publication US9708639B2, “Method for quantifying amino acids with pyrophosphate” (TOYAMA PREFECTURE, priority 2012, dated 2017).

Target: T1, Thermotoga-derived SerRS (Thermotoga maritima, UniProt Q9X199)
T1 construct: His tag (C); made in house; host or cells: Escherichia coli BL21 (DE3)
Test: Calibration curve for amino acid by coupled PPDK and LDH
Type: biochemical, Thermotoga maritima MSB8 strain
Conditions: Ser 0 to 200 μM; hydroxylamine 1000 mM; SerRS 0.2 mg/ml (8 mU/ml); 30° C.
Description: A test sample containing an amino acid as the measurement subject and a reaction mixture for quantifying amino acid having the following composition were mixed. The mixture was left standing at 30° C. to allow the AARS, PPDK, and LDH reactions to advance, and decrease of the absorbance at 340 nm was measured. The volume of the mixture was 200 μl, and after the reaction mixture was put into the wells of a 96-well microplate, the absorbance was measured with a microplate reader.
Reaction mixture for quantifying amino acid: 20 mM Tris-HCl (pH 7.0), 10 mM MgCl2, 10 mM NH4Cl, 0.3 mM PEP, 0.3 mM NADH, 0.2 mM ATP, 0.2 mM AMP, 70 mU/ml PPDK, 50 U/ml LDH, and AARS (concentrations are final concentrations obtained after mixing with test sample)
Calibration curves were prepared by using the AARS activity measurement method described in 8. and standard Cys, Lys, Ser, and Tyr solutions as test samples. The concentrations of the aforementioned amino acids were set so that the final concentrations thereof are in the range of 0 to 200 μM. The hydroxylamine concentration was 200 mM for the samples used for the Tyr calibration curve, or 1000 mM for the samples used for the Cys, Lys, and Ser calibration curves. The Thermotoga-derived CysRS, LysRS, SerRS, TyrRS, and the Thermus-derived TyrRS were added to the reaction mixture at final concentrations of 0.2 (7 mU/ml), 0.1 (10 mU/ml), 0.2 (8 mU/ml), 0.4 (40 mU/ml), and 0.1 mg/ml, respectively.
Calibration curves could be similarly prepared when adding pyrophosphate instead of the aforementioned amino acids, but the inclinations of the Lys, Ser, and Tyr calibration curves (absorbance change per mM of substrate) were 80% or more of the inclination of the pyrophosphate calibration curve. […] The inclination of the Cys calibration curve was slightly smaller than those of the other calibration curves, and it is considered that this is because a part of cysteine in the test sample was converted into cystine by air oxidation, and the real concentration of cysteine was reduced.

T1 sequence (Q9X199 whole entry): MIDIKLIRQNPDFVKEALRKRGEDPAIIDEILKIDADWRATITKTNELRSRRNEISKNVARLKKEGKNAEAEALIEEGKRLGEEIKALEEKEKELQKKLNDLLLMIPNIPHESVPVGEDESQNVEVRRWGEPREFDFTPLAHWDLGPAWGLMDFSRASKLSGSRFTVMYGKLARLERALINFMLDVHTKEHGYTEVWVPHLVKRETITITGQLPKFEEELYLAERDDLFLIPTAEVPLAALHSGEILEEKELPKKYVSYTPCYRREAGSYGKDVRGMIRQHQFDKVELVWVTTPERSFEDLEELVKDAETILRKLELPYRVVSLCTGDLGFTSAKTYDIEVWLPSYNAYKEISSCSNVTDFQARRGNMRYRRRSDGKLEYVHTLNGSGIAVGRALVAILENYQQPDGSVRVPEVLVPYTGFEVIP

Structure (SMILES)	inclination of calibration curve relative to inclination of the pyrophosphate calibration curve [%]
N[C@@H](CO)C(=O)O [Ser, L-serine]	≥ 80

Target: T2, Thermotoga-derived CysRS (Thermotoga maritima, UniProt Q9WZH8)
T2 construct: The amplification products were each inserted into pET-28a to obtain plasmids for expression of respective AARSs; His tag (C); made in house; host or cells: Escherichia coli BL21 (DE3)
T2 sequence (Q9WZH8 1-460): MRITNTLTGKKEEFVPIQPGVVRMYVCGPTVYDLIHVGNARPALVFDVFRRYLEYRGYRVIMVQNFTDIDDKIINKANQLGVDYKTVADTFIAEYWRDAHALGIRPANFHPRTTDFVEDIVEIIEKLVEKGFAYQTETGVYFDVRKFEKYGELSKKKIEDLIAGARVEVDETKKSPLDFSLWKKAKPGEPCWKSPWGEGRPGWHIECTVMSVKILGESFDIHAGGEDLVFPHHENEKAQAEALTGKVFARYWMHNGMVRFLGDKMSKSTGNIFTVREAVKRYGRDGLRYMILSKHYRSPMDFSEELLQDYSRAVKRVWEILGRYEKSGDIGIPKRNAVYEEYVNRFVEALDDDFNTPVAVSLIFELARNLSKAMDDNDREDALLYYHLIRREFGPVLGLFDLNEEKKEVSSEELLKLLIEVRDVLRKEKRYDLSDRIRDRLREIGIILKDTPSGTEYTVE
Test: Qualitative test of AARS substrate specificity (molybdenum blue method)
Type: biochemical, Thermotoga maritima MSB8 strain
Set-up: key: +: Activity was detected; −: Activity was not detected
Conditions: Tyr 1 mM, other amino acids 5 mM; hydroxylamine 1000 mM; CysRS 0.3 mg/ml (8 mU/ml); 30° C.

Structure (SMILES)	Detection of the activity (pyrophosphate generation), CysRS
C[C@H](N)C(=O)O [Ala, L-alanine]	−
N=C(N)NCCC[C@H](N)C(=O)O [Arg, L-arginine]	−
NC(=O)C[C@H](N)C(=O)O [Asn, L-asparagine]	−
N[C@@H](CC(=O)O)C(=O)O [Asp, L-aspartic acid]	−
N[C@@H](CS)C(=O)O [Cys, L-cysteine]	+
NC(=O)CC[C@H](N)C(=O)O [Gln, L-glutamine]	−
N[C@@H](CCC(=O)O)C(=O)O [Glu, L-glutamic acid]	−
NCC(=O)O [Gly, glycine]	−
N[C@@H](Cc1c[nH]cn1)C(=O)O [His, L-histidine]	−
CC[C@H](C)[C@H](N)C(=O)O [Ile, L-isoleucine]	−
CC(C)C[C@H](N)C(=O)O [Leu, L-leucine]	−
NCCCC[C@H](N)C(=O)O [Lys, L-lysine]	−
CSCC[C@H](N)C(=O)O [Met, L-methionine]	−
N[C@@H](Cc1ccccc1)C(=O)O [Phe, L-phenylalanine]	−
O=C(O)[C@@H]1CCCN1 [Pro, L-proline]	−
N[C@@H](CO)C(=O)O [Ser, L-serine]	−
C[C@@H](O)[C@H](N)C(=O)O [Thr, L-threonine]	−
N[C@@H](Cc1c[nH]c2ccccc12)C(=O)O [Trp, L-tryptophan]	−
N[C@@H](Cc1ccc(O)cc1)C(=O)O [Tyr, L-tyrosine]	−
CC(C)[C@H](N)C(=O)O [Val, L-valine]	−
